Experimental data as given in patent publication US20180050012A1, “Method for Inhibiting Growth of Ovarian Cancer Cells” (NEW BELLUS ENTERPRISES CO., LTD., priority 2016, published 2018).

What was measured:
cell autophagy = conditions: recent phase II clinical study; cited from earlier work
[1] = test system: ES-2 ovarian cancer cell line tumors; assay: ES-2 xenograft ovarian cancer animal model, tumor growth; assay type: in vivo, NOD-SCID mice; conditions: for cell growth of ovarian cancer cell line ES-2 (tumor growth status), single agent: administration of either agent alone
Experimental: In this study, tumors were induced by malignant ovarian cancer cell line ES-2 in NOD-SCID mice to establish malignant ovarian cancer animal models. The efficacy of oral and intraperitoneal administration of 4-acetyl-antroquinonol B for ovarian cancer was evaluated. In the ovarian cancer animal models, the malignant ovarian cancer cell line ES-2 was implanted subcutaneously to simulate the symptoms of malignant ovarian cancer. And the same time, the animals were fed with different concentrations of 4-acetyl-antroquinonol B every day for six weeks. The animals were sacrificed each week in the six weeks, respectively. […] In addition, different doses of 4-acetyl-antroquinonol B were administered orally (5 mg/kg and 10 mg/kg), and 1 dose (3 mg/kg) of cisplatin was injected intravenously each week (three doses total) when the tumor size was about 70-250 mm^3. […] Importantly, as for safety of 4-acetyl-antroquinonol B, the body weight changes of each group of mice were monitored weekly. […] Therefore, 4-acetyl-antroquinonol B was a potential adjuvant therapy agent in the treatment of ovarian cancer.
Immunodeficient mice (NOD/SCID mice, about 4-6 weeks old) were purchased from BioLASCO Taiwan Co., Ltd. The test was initiated after a week of domestication.
The selected tumor cells were ES2 malignant ovarian cancer cells. ES-2 cell line was derived from a ovarian cancer cell line which was highly resistant to chemotherapy drugs (e.g. cisplatin) and had poor prognosis. It was an anchorage-dependent cell line with strong transfer capacity. The culture medium was DMEM containing 10% fetal bovine serum (FBS), 1% non-essential amino acids (NEAA), and 1% antibiotics. The cells were incubated in a incubator at 37° C., 5% CO2 and subcultured once every 3 to 4 days.
The cells were treated with 0.05% trypsin-EDTA for 3 to 5 minutes to be suspended. The serum-containing medium was added to neutralize trypsin. The mixture was then centrifuged at 1000 rpm at 20° C. for 5 min. The supernatant was removed and the cell pellet was gently dispersed. The cells were resuspended in a suitable volume of culture medium. After mixing evenly, a little cell fluid was taken and cells were counted with a cytometer. The cells were diluted to a concentration of 10^7 cells per milliliter, and approximately 0.15 ml was dispensed into a 1.5 ml small centrifuge tube.
A solution of 4-acetyl-antroquinonol B was prepared in DMSO (250 mg/ml, DMSO was used as the solvent). After 4-acetyl-antroquinonol B was completely dissolved, the solution was dispensed as stock solution and stored at 4° C. Sterile normal saline solution was added to the stock to make a 500-fold dilution. The mixture was mixed evenly and then injected intraperitoneally. Cisplatin, a current clinical standard chemotherapy drug, was also an injection with a concentration of 50 mg/ml or 5 mg/ml, and both of which were injected intravenously without further dilution.
The day before tumor cells injection, zoletil 50 (10-fold dilution) and rompun 2% were mixed (1:1), and 0.25 ml of the mixture was injected intraperitoneally to each mouse for anesthesia. The mice were exposed to radiation to suppress their immunity after they were asleep. The irradiation dose was 0.75 Gy.
Mice were anesthetized with 2.5% isoflurane. The hair of injection site was shaved. The injection site was disinfected with 75% alcohol and povidone-iodine before injection. ES2 tumor cells were injected via 29G insulin needle. […]

Atg-5 = assay: Western blot of Atg-5 in treated cells; assay type: cell-based, human; conditions: FIG. 2C
Experimental: (§1) Western blot is carried out in a standard procedure. The cells were washed twice with PBS and then a cell lysis solution was added. Cell debris was removed by centrifugation to collect protein degradation products. The protein concentrate was quantified by BCA assay kit (Pierce, Thermo Scientific, USA). Each sample was taken an equal amount of protein degradation products to 10% SDS-PAGE electrophoresis then transferred to a PVDF membrane, followed by the addition of anti-autophagy-related genes (Atg-7, Atg-5, and LC3BII) primary antibodies, and an anti-β-actin antibody as a control group. After the target proteins and the primary antibodies reacted overnight, the secondary antibody conjugated to HRP was added. Finally, the signals of the target proteins were determined by a luminescence-based imaging system (UVP, LLC, USA).

[2] = set-up: species or system NOD-SCID mice; conditions: mouse, in vivo
Experimental: In this study, tumors were induced by malignant ovarian cancer cell line ES-2 in NOD-SCID mice to establish malignant ovarian cancer animal models. The efficacy of oral and intraperitoneal administration of 4-acetyl-antroquinonol B for ovarian cancer was evaluated. In the ovarian cancer animal models, the malignant ovarian cancer cell line ES-2 was implanted subcutaneously to simulate the symptoms of malignant ovarian cancer. And the same time, the animals were fed with different concentrations of 4-acetyl-antroquinonol B every day for six weeks. The animals were sacrificed each week in the six weeks, respectively. […] Importantly, as for safety of 4-acetyl-antroquinonol B, the body weight changes of each group of mice were monitored weekly. […]
The ES-2 ovarian cancer cells in logarithmic phase were mixed with serum suspension and 0.1 ml (2×10^6 cells) was inoculated into hind legs of NOD-SCID immunodeficient mice to form tumors. […] Changes in tumor volume and body weight were monitored and recorded every week. […] The longest diameter (a) and the shortest diameter (b) of the tumor on mice were measured. The tumor size=(a*b2)/2, and the tumor growth curve was calculated.

ES-2 cell line = assay: Clonogenicity analysis; assay type: cell-based, human; conditions: FIG. 2D
Experimental: In a 6-well plate was seeded 600 cells per well. The culture medium was McCoy5A supplemented with 10% fetal bovine serum.

LC3BII = assay: Autophagy: immunohistochemical staining and western blot of LC3BII in ES-2 cells; assay type: cell-based, human
Experimental: as §1
Presumably because cisplatin treatment initiated autophagy that enhanced viability. […] After 4-acetyl-antroquinonol B treatment, LC3BII was detected by immunohistochemical staining and western blot, showing that 4-acetyl-antroquinonol B did inhibit the LC3BII expression on autophagosomes (FIG. 2A). Cell autophagy would protect cancer cells from apoptosis caused by chemotherapies. Hydroxychloroquine was a widely used antiparasitic drug. […] Hydroxychloroquine increased the pH inside lysosomes thus made the lysosomes difficult to fuse with mature autophagosomes. The Inhibitory effect on autophagy could also solve the problem of cell autophagy resistance due to chemotherapies in cancer cells.

[3] = test system: SKOV-3 ovarian cancer cell line; assay: Cytotoxicity test (SRB assay, cell viability); assay type: cell-based, human
Description: (§2) The ovarian cancer cell lines used in this study included: ES-2, OV-2008, and SKOV-3 obtained from American Type Culture Collection (ATCC). ES-2 was a clear cell carcinoma cell line with high resistance to platinum chemotherapies. Compared with other types of cancer, the clear cell carcinoma was found having poor prognosis in previous studies. SKOV-3 and OV-2008 were more benign cell lines compared to ES-2. Cell culture medium was McCoy5A culture medium (GIbco, 16600-082) supplemented with 1% antibiotic (Gibco, 15140) and 10% fetal bovine serum (FBS, Sigma, F7524). The cells were incubated in a standard incubator (Shel Lab, Sheldon Manufacturing, USA) at 37° C., 5% CO2.
(§3) All the tested cells were incubated in a medium containing 10% fetal bovine serum. When the cells grew to about eighty percent full, the old culture medium was drained and the cells were washed with PBS (phosphate buffered saline) buffer solution. Then, 10 ml of serum-free culture medium was added. Different drugs were added depending on experimental purposes. The reaction was carried out in a 37° C. constant temperature incubator.
(§4) The ovarian cancer cell lines ES-2, OV-2008, and SKOV-3 were placed in a 96-well culture plate (2000 cells/per well) and incubated overnight in 100 μl of complete DMEM. 50 μl of complete DMEM equivalent sample containing 4-acetyl-antroquinonol B (0.5-50 μM) was added to the different wells of the culture plate. In addition, only 100 μl of complete DMEM was added to the control group. After 2 days of culture, the number of cells in each well was determined by sulforhodamine B (a protein-binding dye). Briefly, the cells were fixed in 10% trichloroacetic acid and stained with 0.4% sulforhodamine B. After stained for 20 minutes, the cells were washed with 1% acetic acid. Thereafter, the cell-bound sulforhodamine B was dissolved in 10 mM Tris base. The absorbance (optical density) was determined at 562 nm by a microtiter plate reader.

[4] = test system: OV-2008 ovarian cancer cell line; assay: Cytotoxicity test (SRB assay, cell viability); assay type: cell-based, human; conditions: 0.5-50 μM, 2 days, FIG. 1B
Description: as §2, §3, §4

[5] = test system: ES-2 ovarian cancer cell line; assay: Cytotoxicity test (SRB assay, cell viability); assay type: cell-based, human
Description: as §2, §3, §4

AKT/mTOR/p70S6K = assay: Western blot of signaling pathway molecules in ES2 cells; assay type: cell-based, human; conditions: treatment for 0, 3, 6, and 12 hours, FIG. 3
Experimental: as §1
The effect of 4-acetyl-arbutin-B on cell proliferation and autophagy of ovarian cancer cell line ES2 was observed, and the expression of autophagy-associated protein LC3BII and signaling pathway molecules AKT/mTOR/p70S6K were detected by western blot.

Atg-7 = assay: Western blot of Atg-7 in treated cells; assay type: cell-based, human; conditions: FIG. 2C
Experimental: as §1

SMILES	inhibition of cell autophagy (cell autophagy)	cell growth of ovarian cancer cell line ES-2 (tumor growth status), single agent [1]	inhibitory effect on tumor growth, administered alone ([1]; oral 5 mg/kg and 10 mg/kg)	tumor severity versus control group ([1]; oral or intraperitoneal injection, daily for six weeks)	combined inhibitory effect on ovarian cancer with cisplatin and FOLFOX ([1]; ovarian cancer animal model)	expression of downstream Atg-5 (Atg-5)	safety in the living body [2]	cell colony formation efficiency (ES-2 cell line)	cell autophagy (LC3BII; ES-2 cell line)	autophagosome maturation compared with hydroxychloroquine (LC3BII; ES-2 pretreated with 5 μM cisplatin, FIG. 2B)	LC3BII expression on autophagosomes (LC3BII; immunohistochemical staining and western blot, FIG. 2A)	inhibitory effect on ovarian cancer cell line [3]	response to 4-acetyl-antroquinonol B in cell viability test (cytotoxicity) [4]	growth of ES2 cells ([5]; 20 uM, time-dependent effect, P<0.05)	response to 4-acetyl-antroquinonol B in cell viability test (cytotoxicity) ([5]; ES-2, 0.5-50 μM, 2 days, FIG. 1B)	cell viability compared with hydroxychloroquine ([5]; ES-2 pretreated with 5 μM cisplatin, same concentration)	expressions of signaling pathway key molecules AKT/mTOR/p70S6K (AKT/mTOR/p70S6K)	expression of Atg-7 (Atg-7)	body weight after sustained decrease from approximately 26 g [2]	autophagy phenomenon after cisplatin treatment (LC3BII; ES-2 cell line)
CCN(CCO)CCCC(C)Nc1ccnc2cc(Cl)ccc12 (stereo not drawn) [hydroxychloroquine]	could successfully inhibit cell autophagy																			
COC1=C(OC)[C@H](OC(C)=O)[C@H](C/C=C(\C)CC/C=C(\C)C[C@H]2C[C@H](C)C(=O)O2)[C@@H](C)C1=O [4-acetyl-antroquinonol B]		effectively inhibited	dose-dependent inhibitory effect	significantly lower	synergistic inhibitory effect	inhibited	extremely high	decreased	significantly inhibited	inhibited more than in cells treated with hydroxychloroquine	did inhibit	high inhibitory effect	responsive	significantly inhibited	most pronounced response	significantly lower than that in cells treated with hydroxychloroquine	significantly reduced	reduced		
N.N.[Cl][Pt][Cl] [cisplatin, reference compound]		effectively inhibited																	about 21 g	more significant
